“Also recorded” adds a separate entry of the source.
Experiments:
MCF-7 = test: MTT cell viability assay, MCF-7; format: cell-based, human; details: Homo sapiens, MCF7, 72 h, read-out: IC50 (µM) in Cultured Cells MCF-7
Source text: (§1) Cell lines used for cytotoxicity assays included MCF-7 (human breast adenocarcinoma), A549 (human lung adenocarcinoma), K562 (human chronic myelogenous leukemia) and HEK-293 (human embryonic kidney) cells and were obtained from the Iranian Biological Resource Center, Tehran, Iran. MES-SA-DX5 multidrug resistant human uterine sarcoma, over-expressing P-gp and their parental non-resistant MES-SA cell lines were purchased from Sigma-Aldrich (St. Louis, MO, USA). All cells, except for HEK-293, were cultured in RPMI 1640 supplemented with 10% FBS and 100 units/mL penicillin-streptomycin at 37 °C in humidified air containing 5% CO2. HEK-293 cells were maintained in DMEM-F12 medium containing L-glutamine 2 mM supplemented with FBS and penicillin-streptomycin. MES-SA-DX5 cells were maintained in media containing 100 nM doxorubicin in order to ensure that only drug-resistant cells continue to grow.
(§2) Cytotoxicity of the test compounds were evaluated by MTT assay. In this method, reduction of MTT, a yellow tetrazolium salt to the purple formazan, by cellular dehydrogenase enzymes is determined as an index of cell viability. Cancer cells were seeded into 96-well plates (3–5 × 10^3 cells/well) and incubated for 24 h at 37 °C. Afterwards, four different concentrations of synthesized derivatives were added in triplicate and the cells were incubated at 37 °C for another 72 h, after which the media was replaced with MTT solution at a concentration of 0.5 mg/mL was added for MTT assay. After another 4h, formazan crystals were dissolved in 200 μL DMSO for 90 min and absorbance was measured at a wavelength of 570 nm with background correction at 650 nm using a microplate reader (model 680, Bio-Rad, Hercules, CA, USA) and IC50 for each compound was calculated with CurveExpert version 1.34 for Windows.

P-gp = target: T1, P-gp (Homo sapiens, UniProt P08183); test: MDR reversal assay: flow cytometric detection of Rhodamine123 efflux/accumulation in MES-SA-DX5 cells; format: cell-based; details: compounds at 5, 10 and 25 µM, 5 µM Rh123
T1 construct: MES-SA-DX5 is a resistant cell line, which overexpresses P-gp as a result of constant exposure to doxorubicin; host or cells: MES-SA-DX5 human uterine sarcoma cells
T1 sequence (P08183 whole entry): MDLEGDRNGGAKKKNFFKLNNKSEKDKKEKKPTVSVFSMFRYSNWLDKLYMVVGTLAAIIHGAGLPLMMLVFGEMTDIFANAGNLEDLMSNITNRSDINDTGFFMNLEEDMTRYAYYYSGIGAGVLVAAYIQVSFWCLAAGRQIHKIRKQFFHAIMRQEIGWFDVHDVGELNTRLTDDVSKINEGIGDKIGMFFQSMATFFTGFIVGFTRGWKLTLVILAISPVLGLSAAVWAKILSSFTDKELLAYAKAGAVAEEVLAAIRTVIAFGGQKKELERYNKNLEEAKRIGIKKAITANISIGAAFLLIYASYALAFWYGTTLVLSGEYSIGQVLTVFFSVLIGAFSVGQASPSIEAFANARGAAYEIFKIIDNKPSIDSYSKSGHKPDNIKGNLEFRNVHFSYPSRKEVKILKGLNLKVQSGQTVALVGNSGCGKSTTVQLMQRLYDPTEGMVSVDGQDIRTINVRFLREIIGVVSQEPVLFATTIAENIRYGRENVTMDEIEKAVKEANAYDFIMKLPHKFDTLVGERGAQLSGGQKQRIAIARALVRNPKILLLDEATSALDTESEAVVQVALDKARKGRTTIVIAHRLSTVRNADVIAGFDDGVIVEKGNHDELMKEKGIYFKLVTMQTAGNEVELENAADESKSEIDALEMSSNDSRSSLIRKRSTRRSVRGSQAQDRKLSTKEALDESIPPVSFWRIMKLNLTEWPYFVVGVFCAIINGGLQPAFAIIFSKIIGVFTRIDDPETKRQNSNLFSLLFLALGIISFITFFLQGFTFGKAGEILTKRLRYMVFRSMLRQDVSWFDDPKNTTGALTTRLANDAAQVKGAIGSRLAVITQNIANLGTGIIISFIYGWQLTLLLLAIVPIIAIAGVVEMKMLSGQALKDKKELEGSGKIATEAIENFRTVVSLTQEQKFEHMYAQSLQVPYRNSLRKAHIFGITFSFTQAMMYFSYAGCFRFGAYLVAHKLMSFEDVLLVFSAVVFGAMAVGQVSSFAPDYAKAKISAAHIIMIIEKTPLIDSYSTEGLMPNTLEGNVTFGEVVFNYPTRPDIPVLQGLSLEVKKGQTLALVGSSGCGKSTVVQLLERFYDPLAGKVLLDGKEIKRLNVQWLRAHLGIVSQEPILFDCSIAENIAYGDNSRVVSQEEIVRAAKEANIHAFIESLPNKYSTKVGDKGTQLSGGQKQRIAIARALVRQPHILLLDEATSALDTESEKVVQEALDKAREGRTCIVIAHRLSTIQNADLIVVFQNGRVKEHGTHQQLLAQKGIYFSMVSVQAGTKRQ
Experimental: Rhodamine 123 (Rh123) is a well-known substrate of P-gp and it is readily pumped out of the cells by this ABC transporter. The amount of retained Rh123 in the cells indicates the efflux function of the target transporter. Flow cytometric analysis was used for assessment of intracellular Rh123 as previously described.
Briefly, a suspension of the multidrug resistant uterine sarcoma MES-SA-DX5 cells at a density of 5 × 10^5 cells/mL in growth medium was prepared. Four-hundred microliters (400 µL) of the synthesized compounds with final concentration of 5, 10, and 25 µM were added to 500 µL of the cell suspension. Verapamil was also tested as a positive control. After an incubation of 20 min, 50 µL of Rh123 at a final concentration of 5 µM was added and incubated for further 30 min at 37 °C. The cells were then centrifuged and washed twice with ice-cold PBS, and then resuspended in PBS and kept on ice. Rh123 accumulated in cells was then quantified by a FACSCalibur flow cytometer (Becton Dickinson, San Jose, CA, USA) with excitation and emission wavelengths of 488 and 530 nm, respectively. Geometric means of fluorescence intensity values were determined using Flowing Software (http://flowingsoftware.btk.fi/).
Accumulation of Rhodamine123 (Rh123), caused by inhibition of P-gp-mediated efflux, was determined by flow cytometry in the multidrug resistant uterine sarcoma MES-SA-DX5 cell line. Verapamil was used as a positive control. MES-SA-DX5 is a resistant cell line, which overexpresses P-gp as a result of constant exposure to doxorubicin. Alterations in the amount of the fluorescent Rh123 retained inside the MES-SA-DX5 cells can be plausibly related to the inhibition of the activity of P-gp efflux pump in the cells (Figure 1). The ratio of the geometric mean value of cells treated with synthesized compounds to the geometric mean value of the control untreated cells are show in Figure 2.
Figure 2 MDR reversal assessed by flow cytometric detection of Rhodamine123 efflux in MES-SA-DX5 cells. Cells were suspended in RPMI 1640 and treated with verapamil (Ver, positive control) or synthesized derivatives. After incubation for 20 min, 5 μM Rh123 was added, the cells were incubated for another […] at 37 °C and then centrifuged and washed twice with ice-cold PBS and resuspended in PBS. The fluorescence caused by the presence of Rh123 in cells was measured using a flow cytometer with excitation and emission wavelengths of 488 nm and 530 nm, respectively. The values represent the mean ± S.E.M. of 3–5 experiments. * The difference between treated and controlled cells are statistically significant (p ˂ 0.05).

K562 = test: MTT cell viability assay, K562; format: cell-based, human; details: Homo sapiens, K562, 72 h, read-out: IC50 (µM) in Cultured Cells K562
Source text: as §1, §2

A-549 = test: MTT cell viability assay, A-549; format: cell-based, human; details: Homo sapiens, A549, 72 h, read-out: IC50 (µM) in Cultured Cells A-549
Source text: as §1, §2

MES-SA-DX5 = test: MTT cell viability assay, MES-SA-DX5; format: cell-based, human; details: Homo sapiens, MES-SA/Dx5, 72 h, multidrug resistant, P-gp overexpressing, read-out: IC50 (µM) in Cultured Cells MES-SA-DX5
Source text: as §1, §2

HEK-293 = test: MTT cell viability assay, HEK-293; format: cell-based, human; details: Homo sapiens, HEK293, 72 h, non-cancerous, read-out: IC50 (µM) in Cultured Cells HEK-293
Source text: as §1, §2

MES-SA = test: MTT cell viability assay, MES-SA; format: cell-based, human; details: MTT; for IC50: Homo sapiens, MES-SA, 72 h, parental non-resistant, read-out: IC50 (µM) in Cultured Cells MES-SA
Source text: as §1, §2

MES-SA-DX5 cells = test: Cell cycle analysis by propidium iodide (PI)-RNase flow cytometry; format: cell-based, human; design: Sub G1: unit not given here; details: 24 h
Experimental: The analysis of cells in different phases of cell cycle and sub-G1 was performed using propidium iodide (PI)-RNase assay by flow cytometry. MES-SA-DX5 cells were seeded in 12-well plates (1 × 10^6 cells/well) and treated with different concentrations of synthesized compounds for 24 h. The cells were then collected, washed with PBS, and fixed with 70% ethanol overnight at –20 °C. After at least 24 h, fixed cells were washed with PBS and subsequently stained with a DNA staining solution containing PI 20 μg/mL and RNase 200 μg/mL at room temperature for 30 min in the dark. Twenty thousand cells of each sample were analyzed using a BD FACSCalibur flow cytometer (BD Biosciences, USA) and the amount of the cells in sub-G1, G0/G1, S, and G2/M phases were estimated using CellQuest (Becton Dickinson, San Jose, CA, USA) software.
Therefore, it could be concluded that these compounds cause cytotoxicity in drug resistant MES-SA-DX5 cells by induction of apoptosis in these cells.
Figure 3 Effect of synthesized derivatives on cell cycle alterations in MES-SA-DX5 drug resistant cells. The cells in different phases of cell cycle were monitored using propidium iodide (PI)-RNase assay by flow cytometry. MES-SA-DX5 cells were seeded in 12-well plates (1 × 10^6 cells/well) and treated with different concentrations of synthesized compounds for 24 h. The cells were then collected, washed with PBS and fixed with 70% ethanol overnight at –20 °C. After at least 24 h, fixed cells were washed with PBS and subsequently stained with a DNA staining solution containing PI 20 μg/mL and RNase 200 μg/mL at room temperature for 30 min in the dark. Twenty thousand cells of each sample were analyzed using a FACS Calibur flow cytometer (BD Biosciences, USA). Representative histograms of cells treated with synthesized compounds are shown. An increase in sub-G1 phase cells could be observed after treatment with A1, A2, B1, and B2 compounds.

Cc1nc(NC(=O)c2c(C)nc3c(c2-c2ccc(Br)cc2)C(=O)CCC3)cs1 [Compound B2, 4-(4-Bromophenyl)-2-methyl-N-(2-methylthiazol-4-yl)-5-oxo-5,6,7,8-tetrahydroquinoline-3-carboxamide]
IC50 (MCF-7): 77.7 ± 8.7 µM | melting point: 261 °C | P-gp inhibitory activity (Rh123 accumulation) (P-gp): significantly blocked P-gp efflux; also recorded: highest P-gp inhibitory activities | IC50 (K562): 10.1 ± 1.5 µM | IC50 (A-549): 86.8 ± 5 µM | IC50 (MES-SA-DX5): 43.6 ± 2.8 µM | IC50 (HEK-293): > 50 µM | IC50 (MES-SA): > 100 µM | effect against parental non-resistant MES-SA cells (MES-SA): did not show any effect | G0/G1 (MES-SA-DX5 cells; 10 µM): 53.00 ± 3.6 | G2/M (MES-SA-DX5 cells; 10 µM): 24.13 ± 2.4 | S (MES-SA-DX5 cells; 10 µM): 21.80 ± 1.5 | Sub G1 (MES-SA-DX5 cells; 10 µM): 0.96 ± 0.1 | G0/G1 (MES-SA-DX5 cells; 25 µM): 55.83 ± 2.6 | G2/M (MES-SA-DX5 cells; 25 µM): 22.23 ± 1.4 | S (MES-SA-DX5 cells; 25 µM): 20.30 ± 1.7 | Sub G1 (MES-SA-DX5 cells; 25 µM): 1.57 ± 0.4 | G0/G1 (MES-SA-DX5 cells; 100 µM): 47.00 ± 0.6 | G2/M (MES-SA-DX5 cells; 100 µM): 29.27 ± 1.8 | S (MES-SA-DX5 cells; 100 µM): 19.48 ± 1.8

Cc1nc(NC(=O)c2c(C)nc3c(c2-c2ccc(Cl)cc2Cl)C(=O)CCC3)cs1 [Compound B1, 4-(2,4-Dichlorophenyl)-2-methyl-N-(2-methylthiazol-4-yl)-5-oxo-5,6,7,8-tetrahydroquinoline-3-carboxamide]
IC50 (MCF-7): 47.1 ± 2.1 µM | melting point: 248 °C | P-gp inhibitory activity (Rh123 accumulation) (P-gp): significantly blocked P-gp efflux | IC50 (K562): 6.7 ± 0.6 µM | IC50 (A-549): 60 ± 3 µM | IC50 (MES-SA-DX5): 39.8 ± 1.6 µM | IC50 (HEK-293): 39.9 ± 5.4 µM | IC50 (MES-SA): 55.6 ± 2.4 µM | G0/G1 (MES-SA-DX5 cells; 10 µM): 49.10 ± 3.7 | G2/M (MES-SA-DX5 cells; 10 µM): 29.03 ± 2.1 | S (MES-SA-DX5 cells; 10 µM): 21.27 ± 2.1 | Sub G1 (MES-SA-DX5 cells; 10 µM): 0.64 ± 0.1 | G0/G1 (MES-SA-DX5 cells; 25 µM): 51.13 ± 2.4 | G2/M (MES-SA-DX5 cells; 25 µM): 27.03 ± 0.6 | S (MES-SA-DX5 cells; 25 µM): 20.90 ± 2.0 | Sub G1 (MES-SA-DX5 cells; 25 µM): 0.91 ± 0.0 | S (MES-SA-DX5 cells; 100 µM): 25.17 ± 0.7
